Results reported in patent US12653787B2, “Pharmaceutical oral dosage form of Q203” (QURIENT CO., LTD., priority 2019, dated 2026).

Legend:
[1] = Solubility of Q203 in aqueous solutions (background statement); format: physicochemical
cytochrome bc1 = cytochrome bc1 (Mycobacterium tuberculosis, UniProt P9WP37); conditions: by inhibiting cytochrome bc1 activity; Pethe et al., Nature Medicine 2013; cited from earlier work
Sequence of cytochrome bc1 (P9WP37 whole entry, looked up): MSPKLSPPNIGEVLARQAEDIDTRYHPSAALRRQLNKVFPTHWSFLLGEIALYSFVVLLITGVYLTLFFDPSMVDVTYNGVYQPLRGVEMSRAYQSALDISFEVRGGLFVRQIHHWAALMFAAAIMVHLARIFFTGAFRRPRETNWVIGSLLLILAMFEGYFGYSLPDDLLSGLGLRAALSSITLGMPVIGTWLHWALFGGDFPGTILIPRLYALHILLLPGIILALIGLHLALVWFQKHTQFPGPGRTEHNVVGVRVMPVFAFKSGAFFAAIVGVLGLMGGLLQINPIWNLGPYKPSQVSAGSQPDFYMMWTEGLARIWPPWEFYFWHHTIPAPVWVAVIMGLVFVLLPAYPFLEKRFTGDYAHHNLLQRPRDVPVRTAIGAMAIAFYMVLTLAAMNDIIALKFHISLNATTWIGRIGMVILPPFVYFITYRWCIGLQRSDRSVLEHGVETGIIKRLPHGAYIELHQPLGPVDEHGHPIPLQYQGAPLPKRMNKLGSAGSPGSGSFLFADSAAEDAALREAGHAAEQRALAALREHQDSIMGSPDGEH

CCc1nc2ccc(Cl)cn2c1C(=O)NCc1ccc(N2CCC(c3ccc(OC(F)(F)F)cc3)CC2)cc1 [Example Q203, 6-chloro-2-ethyl-N-(4-(4-(4-(trifluoromethoxy)phenyl)piperidine-1-yl)benzyl)imidazo[1,2-a]pyridine-3-carboxamide]
solubility in aqueous solutions [1]: rather low solubility
activity against tuberculosis (cytochrome bc1): active against tuberculosis
